The test deals with Growth hormone secretagogue receptor type 1 (Homo sapiens, UniProt Q92847). Description: Receptor Binding Studies.
Chain of Growth hormone secretagogue receptor type 1 (Q92847 whole entry): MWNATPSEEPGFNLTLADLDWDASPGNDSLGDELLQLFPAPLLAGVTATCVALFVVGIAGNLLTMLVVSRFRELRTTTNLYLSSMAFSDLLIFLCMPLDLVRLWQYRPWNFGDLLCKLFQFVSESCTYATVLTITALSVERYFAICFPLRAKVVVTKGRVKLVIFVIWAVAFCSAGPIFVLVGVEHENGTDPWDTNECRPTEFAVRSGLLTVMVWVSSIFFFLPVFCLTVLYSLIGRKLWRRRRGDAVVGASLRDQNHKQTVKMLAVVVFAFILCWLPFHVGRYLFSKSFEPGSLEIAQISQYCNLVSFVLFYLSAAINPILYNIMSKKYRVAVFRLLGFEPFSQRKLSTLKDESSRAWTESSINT

For orientation: EC50 means the concentration giving half of the maximal effect. With `COc1ccc(Cn2c(CCc3ccccc3)nnc2[C@@H](Cc2c[nH]c3ccccc23)NC(=O)C2CCCCC2)cc1` [N-[(1R)-2-(1H-indol-3-yl)-1-{4-[(4-methoxyphenyl)methyl]-5-(2-phenylethyl)-4H-1,2,4-triazol-3-yl}ethyl]cyclohexanecarboxamide], the EC50 came to 390 nM.
As a reminder, the IC50 is the midpoint of a concentration-inhibition curve. Where the note is “pH 7.3, 25 °C”, `COc1ccc(Cn2c(CCc3ccccc3)nnc2[C@@H](Cc2c[nH]c3ccccc23)NC(=O)[C@@H]2CCCN2)cc1` [(2S)-N-[(1R)-2-(1H-indol-3-yl)-1-{4-[(4-methoxyphenyl)methyl]-5-(2-phenylethyl)-4H-1,2,4-triazol-3-yl}ethyl]pyrrolidine-2-carboxamide] showed an IC50 of 9.5 nM and a Kb of 13 nM.
Take `COc1ccc(Cn2c(CCc3ccccc3)nnc2[C@@H](Cc2c[nH]c3ccccc23)NC(=O)C2CNCCN2)cc1` (stereo partly drawn) [N-[(1R)-2-(1H-indol-3-yl)-1-{4-[(4-methoxyphenyl)methyl]-5-(2-phenylethyl)-4H-1,2,4-triazol-3-yl}ethyl]piperazine-2-carboxamide]: the EC50 came out at 12 nM.
With `COc1ccc(Cn2c(CCc3ccccc3)nnc2[C@@H](Cc2c[nH]c3ccccc23)NC(=O)CCN)cc1` [3-amino-N-[(1R)-2-(1H-indol-3-yl)-1-{4-[(4-methoxyphenyl)methyl]-5-(2-phenylethyl)-4H-1,2,4-triazol-3-yl}ethyl]propanamide], for the setting “pH 7.3, 25 °C”, the EC50 worked out at 256 nM.
The compound `CCc1ccc(Cn2c(CCc3ccccc3)nnc2[C@@H](Cc2c[nH]c3ccccc23)NC(=O)[C@@H]2CCCN2)cc1` [(2S)-N-[(1R)-1-{4-[(4-ethylphenyl)methyl]-5-(2-phenylethyl)-4H-1,2,4-triazol-3-yl}-2-(1H-indol-3-yl)ethyl]pyrrolidine-2-carboxamide] yielded an IC50 (pH 7.3, 25 °C) of 490 nM.
For `O=C(N[C@H](Cc1c[nH]c2ccccc12)c1nnc(Cc2ccccc2)n1Cc1ccccn1)C1CCNCC1` [N-[(1R)-1-[5-benzyl-4-(pyridin-2-ylmethyl)-4H-1,2,4-triazol-3-yl]-2-(1H-indol-3-yl)ethyl]piperidine-4-carboxamide], the IC50 was above 1000 nM.
On to `O=C(N[C@H](Cc1c[nH]c2ccccc12)c1nnc(CCc2ccccc2)n1-c1ccccc1)C1CCNCC1` [N-[(1R)-2-(1H-indol-3-yl)-1-[4-phenyl-5-(2-phenylethyl)-4H-1,2,4-triazol-3-yl]ethyl]piperidine-4-carboxamide], for which the IC50 came to 468 nM. This lies in the sub-micromolar range.
In turn, `COc1ccc(Cn2c(CCc3ccccc3)nnc2[C@@H](Cc2c[nH]c3ccccc23)NC(=O)C2CNCCN2)c(OC)c1` (stereo partly drawn) [N-[(1R)-1-{4-[(2,4-dimethoxyphenyl)methyl]-5-(2-phenylethyl)-4H-1,2,4-triazol-3-yl}-2-(1H-indol-3-yl)ethyl]piperazine-2-carboxamide] showed an EC50 of 19.6 nM.
Compound `COc1ccc(-n2c(CCc3ccccc3)nnc2[C@@H](Cc2c[nH]c3ccccc23)NC(=O)C2CCNCC2)c(OC)c1` [N-[(1R)-1-[4-(2,4-dimethoxyphenyl)-5-(2-phenylethyl)-4H-1,2,4-triazol-3-yl]-2-(1H-indol-3-yl)ethyl]piperidine-4-carboxamide] registered an EC50 of 14 nM.
Regarding `COc1ccc(Cn2c(CCc3ccccc3)nnc2[C@@H](Cc2c[nH]c3ccccc23)NC(=O)[C@@H](N)Cc2ccccc2)cc1` [(2S)-2-amino-N-[(1R)-2-(1H-indol-3-yl)-1-{4-[(4-methoxyphenyl)methyl]-5-(2-phenylethyl)-4H-1,2,4-triazol-3-yl}ethyl]-3-phenylpropanamide], the Kb (pH 7.3, 25 °C) came to 24 nM.
For the setting “pH 7.3, 25 °C”, `COc1ccc(Cn2c(CCc3c[nH]c4ccccc34)nnc2[C@@H](Cc2c[nH]c3ccccc23)NC(=O)[C@@H]2CCCN2)cc1` [(2S)-N-[(1R)-2-(1H-indol-3-yl)-1-{5-[2-(1H-indol-3-yl)ethyl]-4-[(4-methoxyphenyl)methyl]-4H-1,2,4-triazol-3-yl}ethyl]pyrrolidine-2-carboxamide] showed a Kb of 6 nM.
In the case of `COc1ccc(Cn2c(CCc3c[nH]c4ccccc34)nnc2[C@@H](Cc2c[nH]c3ccccc23)NC(=O)C2CNCCN2)c(OC)c1` (mixture of isomers) [N-[(1R)-1-{4-[(2,4-dimethoxyphenyl)methyl]-5-[2-(1H-indol-3-yl)ethyl]-4H-1,2,4-triazol-3-yl}-2-(1H-indol-3-yl)ethyl]piperazine-2-carboxamide], the Kb amounted to 5 nM.

The values above are taken from BindingDB's records for doi:10.1021/jm0704550 (Cnrs, 2007).
